Test results from patent US11834401B2, “Treating and preventing diseases by modulating cell mechanics” (THE JOHNS HOPKINS UNIVERSITY, priority 2013, dated 2023).

Columns and labels:
NMIIA, NMIIC, ACTN4 = assay: Western analysis of mechanobiome protein expression; format: cell-based, human; conditions: Panc10.05 cells, overnight treatment
myosin IIB = biological target: T1, myosin IIB (Homo sapiens, UniProt P35580); assay: Mammalian cell sedimentation assay; format: cell-based
T1 construct: endogenous in cells; host or cells: HEK293, HPDE
Description: (§1) Sedimentation protocol was adapted from the protocol above. 3×10^6 cells were pelleted for 5 min at 2000 rpm and washed in 1 ml PBS. The pellet was resuspended in 100 μl lysis buffer (50 mM PIPES, pH 6.8, 46 mM NaCl, 2.5 mM EGTA, 1 mM MgCl2, 1 mM ATP, 0.5% Triton X-100, and protease inhibitors—PI cocktail, PMSF, TLCK, Aprotinin). Samples were vortexed briefly and incubated on ice for 20 min, followed by centrifugation at 15,000 g for 5 min at 4° C.
(§2) Pellet was resuspended in 100 μl lysis buffer minus Triton X-100, and both pellet and supernatant fractions were heated to 100° C. for 3 min with RNaseA. Samples were incubated at 37° C. for 30 min and then heated to 100° C. in sample buffer for 5 min. Samples were loaded on a 15% SDS-polyacrylamide gel. Western blot analyses of phospho-myosin IIA was performed on whole cell lysates of cells treated as above in lysate buffer with 10 mM NaF.

myosin IIC = biological target: T2, myosin IIC (Homo sapiens, UniProt Q7Z406); assay: Mammalian cell sedimentation assay; format: cell-based
T2 construct: endogenous in cells; host or cells: HEK293, ASPC-1, HPDE
Description: as §1, §2

myosin IIA = biological target: T3, myosin IIA (Homo sapiens, UniProt P35579); assay: Mammalian cell sedimentation assay; format: cell-based; conditions: human-derived cell lines
T3 construct: endogenous in cells; host or cells: HEK293, HPDE, ASPC-1
Description: as §1, §2

ASPC-1 cells [1] = assay: Retrograde actin flow (SiR-actin, lattice light-sheet); format: cell-based, human; conditions: 500 nM
Description: AsPC-1 cells were grown on collagen I-coated (50 μg/ml) 5-mm coverslips for 16 hrs and then treated with 100-nM SiR-Actin (Cytoskeleton, Inc) and […] Verapamil for 4 hrs in Leibovitz L-15 without phenol red media, with or without 4-HAP (500 nM). Coverslips were transferred to the imaging chamber of the Lattice Light-Sheet Microscope (LLSM) (Intelligent Imaging Innovations) containing fresh Leibovitz L-15 media without SiR-Actin and verapamil plus the corresponding 4-HAP concentration. Cells were imaged for 3-5 min at 2-3-sec intervals, 50-150 planes per 3D stack, with a Nikon CFI75 Apochromat 25×/1.1 water-dipping objective. Retrograde actin flow was measured using ImageJ (rsb.info.nih.gov/ij). Datasets were independently analyzed by multiple investigators.

A10.7 cells = assay: Micropipette aspiration mechanics; format: cell-based, human; conditions: PDAC A10.7 cells
Description: The instrumental and experimental setups have been previously described (Effler J C, et al., 2006; Kee Y-S, et al., 2013). Micropipette aspiration assays were all carried out in growth media with 0.1% DMSO. For cortical tension measurements of Dictyostelium cells, pressure was applied to the cell cortex with a micropipette (2-3 m radius, Rp) to the equilibrium pressure (ΔP) where the length of the cell inside the pipette (Lp) was equal to Rp. The effective cortical tension (Teff) was calculated by applying the Young-Laplace equation: ΔP=2Teff(1/Rp-1/Rc), where Rc is the radius of the cell and ΔP is the equilibrium pressure when Lp=Rp (Derganc J, et al., 2000; Octtaviani E, et al., 2006). For creep tests on mammalian strains, a constant aspiration stress was applied over 60 s. The micropipette radius was 3.5-4.5 m. For quantification, the Lp/Rp ratio values was measured every two seconds and plotted as a function of time. A10.7 and HEK293 cells could only be aspirated at a low pressure range (0.15 nN/μm^2), while HPDE, ASPC-1, and HL-60 cells could be aspirated at higher pressure ranges (0.25 nN/μm^2) because they were stiffer.

ASPC-1 cells [2] = assay: Transwell migration assay; format: cell-based, human; conditions: 24 hr transwell
Description: Cells were starved with serum-reduced media for 24 hr, harvested from flasks with trypsin/EDTA, washed with media containing 1% FBS, and resuspended at cell density of 2-5×10^5 cells/ml. 0.2 ml of cells were placed in the upper chamber of transwell (BD Biosciences), with 20% FBS-containing media in the lower well and incubated at 37° C. for 24 hr. Both sides of the transwell contained 4-HAP at the appropriate concentration, with final DMSO concentration at 0.0025%. The transwells were MeOH-fixed and stained with 0.5% crystal violet for 20 min, followed by counting from six random microscopic fields.

Panc10.05 cells = assay: Micropipette aspiration effective cortical tension (Teff), knockdown lines; format: cell-based, human
Description: The instrumental and experimental setups have been described previously. MPA assays and RT-DC measurements were all carried out in growth media for cortical tension measurements or Leibovitz L-15 media (Gibco) when fluorescence was quantified.
Pressure was applied to the cell cortex with a micropipette (6- to 8-μm radius; Rp) to the equilibrium pressure (ΔP), where the length of the cell inside the pipette (Lp) was equal to Rp. The effective cortical tension (Teff) was calculated by applying the Young-Laplace equation: ΔP=2Teff (1/Rp−1/Rc), where Rc is the radius of the cell and ΔP is the equilibrium pressure when Lp=Rp. Images were collected with an Olympus IX81 microscope equipped with MetaMorph software and analyzed using ImageJ (rsb.info.nih.gov/ij).

T2 sequence (Q7Z406 whole entry): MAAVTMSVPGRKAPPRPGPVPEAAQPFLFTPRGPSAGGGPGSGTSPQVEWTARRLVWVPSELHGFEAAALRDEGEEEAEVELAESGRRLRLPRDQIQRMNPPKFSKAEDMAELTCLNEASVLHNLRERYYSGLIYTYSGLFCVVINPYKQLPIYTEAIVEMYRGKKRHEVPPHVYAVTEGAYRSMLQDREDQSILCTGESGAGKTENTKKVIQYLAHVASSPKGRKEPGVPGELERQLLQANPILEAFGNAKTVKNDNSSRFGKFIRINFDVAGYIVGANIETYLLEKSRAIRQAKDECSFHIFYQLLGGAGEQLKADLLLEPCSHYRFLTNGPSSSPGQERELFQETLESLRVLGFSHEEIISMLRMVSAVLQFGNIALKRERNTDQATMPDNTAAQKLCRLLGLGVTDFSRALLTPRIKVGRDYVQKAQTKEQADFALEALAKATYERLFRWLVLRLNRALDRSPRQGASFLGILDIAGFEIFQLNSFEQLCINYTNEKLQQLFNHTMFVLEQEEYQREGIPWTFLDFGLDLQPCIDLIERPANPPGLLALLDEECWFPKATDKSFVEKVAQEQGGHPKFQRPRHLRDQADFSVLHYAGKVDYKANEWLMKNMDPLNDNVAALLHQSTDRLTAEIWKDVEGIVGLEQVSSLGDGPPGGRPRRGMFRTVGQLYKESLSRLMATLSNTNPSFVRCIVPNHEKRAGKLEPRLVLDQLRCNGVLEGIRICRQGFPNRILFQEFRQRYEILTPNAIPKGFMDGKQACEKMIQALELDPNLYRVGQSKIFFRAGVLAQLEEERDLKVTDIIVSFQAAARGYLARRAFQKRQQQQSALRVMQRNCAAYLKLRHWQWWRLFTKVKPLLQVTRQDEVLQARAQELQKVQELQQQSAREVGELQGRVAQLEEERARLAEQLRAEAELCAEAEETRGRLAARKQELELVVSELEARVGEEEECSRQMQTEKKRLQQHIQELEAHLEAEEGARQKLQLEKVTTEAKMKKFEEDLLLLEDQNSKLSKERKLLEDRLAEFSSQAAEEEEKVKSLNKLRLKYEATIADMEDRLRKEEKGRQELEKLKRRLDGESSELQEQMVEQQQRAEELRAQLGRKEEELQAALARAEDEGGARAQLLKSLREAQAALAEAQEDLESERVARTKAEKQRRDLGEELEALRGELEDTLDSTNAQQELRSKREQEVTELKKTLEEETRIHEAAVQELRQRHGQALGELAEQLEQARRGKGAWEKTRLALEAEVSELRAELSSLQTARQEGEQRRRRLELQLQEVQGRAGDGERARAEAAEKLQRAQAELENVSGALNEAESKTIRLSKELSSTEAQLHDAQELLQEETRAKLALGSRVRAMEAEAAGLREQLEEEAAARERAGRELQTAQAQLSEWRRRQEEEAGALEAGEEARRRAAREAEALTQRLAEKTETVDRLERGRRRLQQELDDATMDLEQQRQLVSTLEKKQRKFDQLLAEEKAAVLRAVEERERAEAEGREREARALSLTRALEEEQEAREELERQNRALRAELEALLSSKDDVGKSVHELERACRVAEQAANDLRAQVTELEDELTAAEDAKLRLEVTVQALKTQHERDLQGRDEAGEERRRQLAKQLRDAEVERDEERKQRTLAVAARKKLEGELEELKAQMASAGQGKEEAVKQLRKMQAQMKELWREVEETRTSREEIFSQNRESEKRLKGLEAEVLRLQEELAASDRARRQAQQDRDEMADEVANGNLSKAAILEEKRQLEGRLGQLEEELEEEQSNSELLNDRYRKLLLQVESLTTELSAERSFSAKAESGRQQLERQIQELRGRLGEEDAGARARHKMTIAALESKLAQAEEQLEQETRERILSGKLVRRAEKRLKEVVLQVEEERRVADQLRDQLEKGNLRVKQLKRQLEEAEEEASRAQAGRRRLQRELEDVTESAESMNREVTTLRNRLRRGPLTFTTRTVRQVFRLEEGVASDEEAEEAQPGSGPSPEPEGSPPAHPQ
T1 sequence (P35580 whole entry): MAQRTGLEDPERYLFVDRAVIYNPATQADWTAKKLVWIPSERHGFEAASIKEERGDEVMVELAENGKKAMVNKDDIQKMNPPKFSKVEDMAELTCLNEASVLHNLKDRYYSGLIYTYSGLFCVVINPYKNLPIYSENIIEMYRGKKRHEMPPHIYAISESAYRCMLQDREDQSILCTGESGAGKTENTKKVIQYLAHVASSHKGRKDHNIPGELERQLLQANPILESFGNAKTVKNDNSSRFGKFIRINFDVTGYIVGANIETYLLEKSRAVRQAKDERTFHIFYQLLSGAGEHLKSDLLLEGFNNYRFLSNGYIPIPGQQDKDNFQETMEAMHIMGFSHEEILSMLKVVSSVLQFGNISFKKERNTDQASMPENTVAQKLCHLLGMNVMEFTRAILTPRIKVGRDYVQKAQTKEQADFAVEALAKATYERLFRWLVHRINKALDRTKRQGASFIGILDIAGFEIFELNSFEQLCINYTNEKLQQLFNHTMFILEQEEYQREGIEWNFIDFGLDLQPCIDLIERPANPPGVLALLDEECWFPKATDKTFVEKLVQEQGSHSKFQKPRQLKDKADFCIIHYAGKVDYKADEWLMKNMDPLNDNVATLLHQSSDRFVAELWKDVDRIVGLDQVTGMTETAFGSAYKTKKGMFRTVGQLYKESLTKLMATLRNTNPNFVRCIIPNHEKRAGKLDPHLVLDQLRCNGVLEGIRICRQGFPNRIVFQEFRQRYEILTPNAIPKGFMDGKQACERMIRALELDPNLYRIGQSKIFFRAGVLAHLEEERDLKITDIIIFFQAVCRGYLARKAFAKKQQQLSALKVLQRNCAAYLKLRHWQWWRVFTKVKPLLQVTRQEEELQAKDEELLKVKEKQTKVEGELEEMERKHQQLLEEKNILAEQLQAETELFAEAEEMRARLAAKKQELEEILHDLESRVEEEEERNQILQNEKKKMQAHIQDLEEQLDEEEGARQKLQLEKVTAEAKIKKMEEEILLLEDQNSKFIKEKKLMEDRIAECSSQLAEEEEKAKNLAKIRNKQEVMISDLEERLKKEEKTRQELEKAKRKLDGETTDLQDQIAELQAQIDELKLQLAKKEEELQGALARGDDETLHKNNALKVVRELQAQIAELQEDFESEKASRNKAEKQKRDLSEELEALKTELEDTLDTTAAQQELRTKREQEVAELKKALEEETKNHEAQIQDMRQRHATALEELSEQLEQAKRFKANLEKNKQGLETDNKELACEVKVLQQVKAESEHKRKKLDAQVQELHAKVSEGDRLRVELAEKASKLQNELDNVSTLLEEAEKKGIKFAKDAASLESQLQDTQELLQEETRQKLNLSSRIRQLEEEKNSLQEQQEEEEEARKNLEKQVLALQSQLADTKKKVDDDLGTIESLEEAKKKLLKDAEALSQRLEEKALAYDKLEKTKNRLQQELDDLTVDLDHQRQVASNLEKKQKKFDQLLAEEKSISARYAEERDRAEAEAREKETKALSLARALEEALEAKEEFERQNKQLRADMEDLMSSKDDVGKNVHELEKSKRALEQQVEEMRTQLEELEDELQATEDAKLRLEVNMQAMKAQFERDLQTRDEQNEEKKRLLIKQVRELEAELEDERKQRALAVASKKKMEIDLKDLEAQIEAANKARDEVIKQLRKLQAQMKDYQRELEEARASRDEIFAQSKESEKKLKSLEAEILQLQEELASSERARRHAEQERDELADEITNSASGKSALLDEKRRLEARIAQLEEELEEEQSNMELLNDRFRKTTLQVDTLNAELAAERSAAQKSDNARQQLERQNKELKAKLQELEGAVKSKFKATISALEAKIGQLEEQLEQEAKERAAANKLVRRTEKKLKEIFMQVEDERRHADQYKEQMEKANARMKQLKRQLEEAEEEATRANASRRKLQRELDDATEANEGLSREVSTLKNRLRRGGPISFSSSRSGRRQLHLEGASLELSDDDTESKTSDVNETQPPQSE

SMILES: CC(=O)c1ccc(O)cc1 [4-HAP, 4-hydroxyacetophenone]
- expression of NMIIA, NMIIC, or ACTN4 (NMIIA, NMIIC, ACTN4): does not affect the expression
- assembled myosin IIB (myosin IIB; HEK293 cells, 500 nM, 1 hr): increases in assembled myosin IIB and IIC
- assembled myosin IIB (myosin IIB; HPDE cells): showed a shift in assembly
- assembled myosin IIC (myosin IIC; ASPC-1 cells, 500 nM, 1 hr): increases assembled myosin IIC
- assembled myosin IIC (myosin IIC; HEK293 cells, 500 nM, 1 hr): increases in assembled myosin IIB and IIC
- assembled myosin IIC (myosin IIC; wild type HPDE cells): increases assembled myosin IIC
- assembled myosin IIA (myosin IIA): showed little change
- detectability of actin flow (ASPC-1 cells [1]): undetectable levels of actin flow
- reduction in retrograde actin flow velocity over untreated controls (ASPC-1 cells [1]; cells in which flow could be measured): 50%
- cortical tension (A10.7 cells): decreases the cortical tension
- in vitro migration (ASPC-1 cells [2]): dose-dependent decrease
- effective cortical tension (Panc10.05 cells; myosin IIA knockdown cells): increases the cortical tension in myosin IIA knockdown cells
- effective cortical tension (Panc10.05 cells; myosin IIC knockdown cells): unchanged by 4-HAP challenge
- effective cortical tension (Panc10.05 cells; sh-control cells, 500-nM): increases the cortical tension of sh-control cells
